Results: patent US20240343704A1, “HALO-SUBSTITUTED AMINO PYRIDINE COMPOUNDS AS INHIBITORS OF THE HAEMATOPOIETIC PROGENITOR KINASE 1 (HPK1)” (priority 2021, published 2024)
Structures can show the parent of a compound that is named as a salt.

Assays:
[1] = molecular target: T1, Recombinant (1-346) HPK1 (h) (Homo sapiens, UniProt Q92918); experiment: HPK1 Human STE Kinase Enzymatic Radiometric Assay; type: biochemical; details: read-out: HPK1 IC50 nM Range*
T1 construct: Recombinant (1-346) HPK1 (h) is incubated with 8 mM MOPS pH 7.0
T1 sequence (Q92918 1-346): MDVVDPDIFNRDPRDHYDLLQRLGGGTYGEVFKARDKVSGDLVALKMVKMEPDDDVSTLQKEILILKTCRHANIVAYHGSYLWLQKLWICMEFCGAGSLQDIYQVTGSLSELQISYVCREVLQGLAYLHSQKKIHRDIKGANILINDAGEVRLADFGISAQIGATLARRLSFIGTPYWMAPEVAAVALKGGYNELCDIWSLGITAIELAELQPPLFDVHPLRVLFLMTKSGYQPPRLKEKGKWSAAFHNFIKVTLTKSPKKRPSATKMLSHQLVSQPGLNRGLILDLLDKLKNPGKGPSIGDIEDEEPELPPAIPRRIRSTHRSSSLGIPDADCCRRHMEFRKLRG
Method: A stock solution of 10 mM of test compound is prepared in DMSO. The compound plate was prepared by 3-fold and 9-point serial dilutions. […] The reaction is initiated by The addition of the Mg/ATP mix. After incubation for 40 minutes at RT, the reaction is stopped by the addition of phosphoric acid to a concentration of 0.5%.

[2] = molecular target: Lck (h) (Homo sapiens, UniProt P06239); experiment: Lck Human  Kinase Enzymatic Radiometric Assay; type: biochemical; details: read-out: Lck IC50 nM Range*
Summary of the method: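 Substrate 33P-incorporation measured by scintillation counting after spotting on P30 filtermat and phosphoric acid washes. Human Lck reacted 40 min at RT in 50 mM Tris pH 7.5 with 10 mM MgAcetate, [gamma-33P]-ATP, 250 uM Cdc2 peptide, 0.1 mM EGTA and 0.1 mM Na3VO4.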

Chain of Lck (h) (P06239 whole entry): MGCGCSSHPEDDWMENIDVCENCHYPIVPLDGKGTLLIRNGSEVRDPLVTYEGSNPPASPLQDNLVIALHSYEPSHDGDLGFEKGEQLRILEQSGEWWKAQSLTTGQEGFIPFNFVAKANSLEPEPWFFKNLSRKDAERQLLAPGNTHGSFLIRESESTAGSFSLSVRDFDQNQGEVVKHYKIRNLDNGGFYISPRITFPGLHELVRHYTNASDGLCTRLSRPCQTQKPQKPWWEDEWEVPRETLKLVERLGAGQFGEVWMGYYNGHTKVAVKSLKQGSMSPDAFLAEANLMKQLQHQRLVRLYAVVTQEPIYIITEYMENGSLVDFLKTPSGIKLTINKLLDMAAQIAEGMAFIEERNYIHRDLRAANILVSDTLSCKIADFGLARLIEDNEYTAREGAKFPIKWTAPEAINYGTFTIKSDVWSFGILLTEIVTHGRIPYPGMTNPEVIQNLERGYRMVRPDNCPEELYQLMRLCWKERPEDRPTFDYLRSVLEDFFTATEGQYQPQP

Row | IC50 [1] | IC50 [2] | SMILES
1 | 0.1 to 10 nM | > 1000 nM | Nc1nc(F)c(-c2ccc(OC3CCN(C(=O)C4CC4)CC3)cc2)cc1-c1ccc2c(c1)CCNC2=O [I-203, 6-(2-amino-5-(4-((1-(cyclopropanecarbonyl)piperidin-4-yl)oxy)phenyl)-6-fluoropyridin-3-yl)-3,4-dihydroisoquinolin-1(2H)-one]
2 | 11 to 100 nM | > 1000 nM | CCN1CCN(c2ccc(-c3cc(-c4ccc5c(c4)CCNC5=O)c(N)nc3Cl)cc2)CC1 [I-75, 6-(2-amino-6-chloro-5-(4-(4-ethylpiperazin-1-yl)phenyl)pyridin-3-yl)-3,4-dihydroisoquinolin-1(2H)-one]
3 | 0.1 to 10 nM | 101 to 1000 nM | Cc1cc2cc(-c3cc(-c4ccc(N5CCN(C(C)C)CC5)cc4)c(F)nc3N)ccc2c(=O)[nH]1 [I-377, 6-(2-amino-6-fluoro-5-(4-(4-isoporpylpiperazin-1-yl)phenyl)pyridin-3-yl)-3-methylisoquinolin-1(2H)-one]
4 | 0.1 to 10 nM | > 1000 nM | CC(C)N1CCC(Oc2ccc(-c3cc(-c4cc5c(cc4F)C(=O)NCC5)c(N)nc3F)cc2C#N)CC1 [I-292, 5-(6-amino-2-fluoro-5-(7-fluoro-1-oxo-1,2,3,4-tetrahydroisoquinolin-6-yl)pyridin-3-yl)-2-((1-isopropylpiperidin-4-yl)oxy)benzonitrile]
5 | 0.1 to 10 nM | > 1000 nM | Nc1nc(F)c(-c2ccc(N3CCOCC3)cn2)cc1-c1ccc2c(c1)CCNC2=O [I-26, 6-(6′-amino-2′-fluoro-5-morpholino-[2,3′-bipyridin]-5′-yl)-3,4-dihydroisoquinolin-1(2H)-one]
6 | 0.1 to 10 nM | > 1000 nM | CC(C)N1CCN(c2ccc(-c3cc(-c4cc5c(cc4F)C(=O)NCC5)c(N)nc3Cl)cc2)CC1 [I-209, 6-(2-amino-6-chloro-5-(4-(4-isopropylpiperazin-1-yl)phenyl)pyridin-3-yl)-7-fluoro-3,4-dihydroisoquinolin-1(2H)-one]
7 | 0.1 to 10 nM | > 1000 nM | C[C@@H]1C[C@@H](Oc2ccc(-c3cc(-c4ccc5c(c4)CCNC5=O)c(N)nc3F)cc2)C[C@H](C)N1 [I-178, 6-(2-amino-5-(4-(((2S,4s,6R)-2,6-dimethylpiperidin-4-yl)oxy)phenyl)-6-fluoropyridin-3-yl)-3,4-dihydroisoquinolin-1(2H)-one]
8 | 0.1 to 10 nM | > 1000 nM | CN(C)CC(=O)N1C[C@H]2C[C@@]2(c2ccc(-c3cc(-c4ccc5c(c4)CCNC5=O)c(N)nc3F)cc2)C1 [I-225, 6-(2-amino-5-(4-((1R,5S)-3-(dimethylglycyl)-3-azabicyclo[3.1.0]hexan-1-yl)phenyl)-6-fluoropyridin-3-yl)-3,4-dihydroisoquinolin-1(2H)-one]
9 | 0.1 to 10 nM | > 1000 nM | CC(C)CN(C)C1CCN(c2ccc(-c3cc(-c4ccc5c(c4)CCNC5=O)c(N)nc3F)cc2)C1 (stereo not shown) [I-162, 6-(2-amino-6-fluoro-5-(4-(3-(isobutyl(methyl)amino)pyrrolidin-1-yl)phenyl)pyridin-3-yl)-3,4-dihydroisoquinolin-1(2H)-one]
10 | 0.1 to 10 nM | > 1000 nM | COCCN1CC=C(c2ccc(-c3cc(-c4ccc5c(c4)CCNC5=O)c(N)nc3F)cc2)CC1 [I-139, 6-(2-amino-6-fluoro-5-(4-(1-(2-methoxyethyl)-1,2,3,6-tetrahydropyridin-4-yl)phenyl)pyridin-3-yl)-3,4-dihydroisoquinolin-1(2H)-one]
11 | 0.1 to 10 nM | > 1000 nM | CN1C[C@@H]2C[C@]2(c2ccc(-c3cc(-c4cc5c(cc4F)C(=O)NCC5)c(N)nc3F)cc2)C1 [I-344, 6-(2-amino-6-fluoro-5-(4-((1S,5R)-3-methyl-3-azabicyclo[3.1.0]hexan-1-yl)phenyl)pyridin-3-yl)-7-fluoro-3,4-dihydroisoquinolin-1(2H)-one]
12 | 0.1 to 10 nM | > 1000 nM | Nc1nc(F)c(-c2ccc(OC3CCN(C(=O)CCCC[C@@H]4SC[C@@H]5NC(=O)N[C@@H]54)CC3)cc2)cc1-c1ccc2c(c1)CCNC2=O [I-348, (3aS,4S,6aR)-4-(5-(4-(4-(6-amino-2-fluoro-5-(1-oxo-1,2,3,4-tetrahydroisoquinolin-6-yl)pyridin-3-yl)phenoxy)piperidin-1-yl)-5-oxopentyl)tetrahydro-1H-thieno[3,4-d]imidazol-2(3H)-one]
13 | 11 to 100 nM | > 1000 nM | CNCC1Cc2cc(-c3cc(-c4ccc(N5CCOCC5)cc4)c(F)nc3N)ccc2C(=O)N1 (stereo not shown) [I-285, 6-(2-amino-6-fluoro-5-(4-morpholinophenyl)pyridin-3-yl)-3-((methylamino)methyl)-3,4-dihydroisoquinolin-1(2H)-one]
14 | 11 to 100 nM | > 1000 nM | C[C@@H]1CN(c2cc(F)c(-c3cc(-c4ccc5c(c4)CCNC5=O)c(N)nc3F)cc2[N+](=O)[O-])C[C@H](C)N1C [I-250, 6-(2-amino-6-fluoro-5-(2-fluoro-5-nitro-4-((3R,5S)-3,4,5-trimethylpiperazin-1-yl)phenyl)pyridin-3-yl)-3,4-dihydroisoquinolin-1(2H)-one formate]
15 | 0.1 to 10 nM | > 1000 nM | Nc1nc(F)c(-c2ccc(N3CCN4CCOC[C@@H]4C3)cc2)cc1-c1ccc2c(c1)CCNC2=O [I-39, (S)-6-(2-amino-6-fluoro-5-(4-(hexahydropyrazino[2,1-c][1,4]oxazin-8(1H)-yl)phenyl)pyridin-3-yl)-3,4-dihydroisoquinolin-1(2H)-one]
16 | 0.1 to 10 nM | > 1000 nM | Nc1nc(F)c(-c2ccc3c(c2)CCC2(CCNCC2)O3)cc1-c1ccc2c(c1)CCNC2=O [I-183, 6-(2-amino-6-fluoro-5-(spiro[chromane-2,4′-piperidin]-6-yl)pyridin-3-yl)-3,4-dihydroisoquinolin-1(2H)-one]
17 | 11 to 100 nM | > 1000 nM | CC(C)N1CCN(c2ccc(-c3cc(-c4ccc5c(c4)CC(CN(C)C)NC5=O)c(N)nc3F)cc2)CC1 (stereo not shown) [I-310, 6-(2-amino-6-fluoro-5-(4-(4-isopropylpiperazin-1-yl)phenyl)pyridin-3-yl)-3-((dimethylamino)methyl)-3,4-dihydroisoquinolin-1(2H)-one]
18 | 0.1 to 10 nM | > 1000 nM | Nc1nc(F)c(-c2ccc(C3CCNCC3)cc2)cc1-c1ccc2c(c1)CCNC2=O [I-30, 6-(2-amino-6-fluoro-5-(4-(piperidin-4-yl)phenyl)pyridin-3-yl)-3,4-dihydroisoquinolin-1(2H)-one]
19 | 0.1 to 10 nM | > 1000 nM | CCN1CCN(c2ccc(-c3cc(-c4cc5c(cc4F)C(=O)NCC5)c(N)nc3F)cc2)CC1 [I-211, 6-(2-amino-5-(4-(4-ethylpiperazin-1-yl)phenyl)-6-fluoropyridin-3-yl)-7-fluoro-3,4-dihydroisoquinolin-1(2H)-one]
20 | 0.1 to 10 nM | > 1000 nM | CC(C)N1CCC2(CCc3cc(-c4cc(-c5ccc6c(c5)CCNC6=O)c(N)nc4F)ccc3O2)CC1 [I-223, 6-(2-amino-6-fluoro-5-(1′-isopropylspiro[chromane-2,4′-piperidin]-6-yl)pyridin-3-yl)-3,4-dihydroisoquinolin-1(2H)-one]
21 | 0.1 to 10 nM | > 1000 nM | CC(C)N1CCN(c2ccc(-c3cc(-c4cc5nc[nH]c(=O)c5cc4F)c(N)nc3F)cc2)CC1 [I-406, 7-(2-amino-6-fluoro-5-(4-(4-isopropylpiperazin-1-yl)phenyl)pyridin-3-yl)-6-fluoroquinazolin-4(3H)-one]
22 | 0.1 to 10 nM | > 1000 nM | CC(C)N1CCC(F)(c2ccc(-c3cc(-c4ccc5c(c4)CCNC5=O)c(N)nc3F)cc2)CC1 [I-239, 6-(2-amino-6-fluoro-5-(4-(4-fluoro-1-isopropylpiperidin-4-yl)phenyl)pyridin-3-yl)-3,4-dihydroisoquinolin-1(2H)-one]
23 | 0.1 to 10 nM | > 1000 nM | CC(C)S(=O)(=O)c1ccc(-c2cc(-c3ccc4c(c3)CCNC4=O)c(N)nc2F)cc1 [I-15, 6-(2-amino-6-fluoro-5-(4-(isopropylsulfonyl)phenyl)pyridin-3-yl)-3,4-dihydroisoquinolin-1(2H)-one]
24 | 0.1 to 10 nM | > 1000 nM | CC(C)N1CCN(c2ccc(-c3cc(-c4ccc5c(=O)[nH]cnc5c4)c(N)nc3F)cc2)CC1 [I-362, 7-(2-amino-6-fluoro-5-(4-(4-isopropylpiperazin-1-yl)phenyl)pyridin-3-yl)quinazolin-4(3H)-one]
25 | 0.1 to 10 nM | > 1000 nM | CN1C[C@H]2C[C@@]2(c2ccc(-c3cc(-c4cc5c(cc4F)C(=O)NCC5)c(N)nc3F)cc2)C1 [I-343, 6-(2-amino-6-fluoro-5-(4-((1R,5S)-3-methyl-3-azabicyclo[3.1.0]hexan-1-yl)phenyl)pyridin-3-yl)-7-fluoro-3,4-dihydroisoquinolin-1(2H)-one]

Row | SMILES | IC50 [1] | IC50 [2]
26 | Nc1nc(F)c(-c2ccc([C@@]34C[C@@H]3CN(CC(F)F)C4)cc2)cc1-c1ccc2c(c1)CCNC2=O [I-72, 6-(2-amino-5-(4-((1R,5S)-3-(2,2-difluoroethyl)-3-azabicyclo[3.1.0]hexan-1-yl)phenyl)-6-fluoropyridin-3-yl)-3,4-dihydroisoquinolin-1(2H)-one] | 11 to 100 nM | > 1000 nM
